{"source": "patent US6193967A", "about": "“Bispecific reagents for redirected targeting of human lipoproteins” (priority 1997, dated 2001)", "system": "monocytes", "assay": "Uptake of bispecific LDL*-IC by monocytes (flow cytometry of cell-associated fluorescence)", "assay_type": "cell-based, human", "details": "monocytes at 37° C., bispecific LDL*-IC (anti-FcγRII×anti-LDL plus BODIPY-LDL); antioxidant concentration not given", "description": "All experiments were done under sterile conditions. For each experiment, bispecific LDL immune complexes (bispecific LDL*-IC) were freshly prepared by combining 4 μg/ml of LDL* with heteroantibodies in eppendorf tubes in monocyte culture medium (without serum or unlabeled LDL unless otherwise indicated), and incubating for one hour at room temperature, prior to adding cells in RPMI 1640 plus 10% FCS. That concentration of LDL* was chosen because it gave a satisfactory signal to noise ratio. In all experiments, a control consisting of LDL* alone was set up by substituting medium for heteroantibody. The final volume of bispecific complexes prior to addition of cells was […]; […] of cells at 1×10^7 /ml were added for a final volume of […]. The tubes were then mixed by gentle pipetting, and incubated at 4° C. or 37° C. as indicated. Final mAb or heteroantibody concentrations are shown in each figure; the final concentration of LDL* in all preparations was 1.33 μg/ml unless otherwise indicated. […]\nIn all experiments, cells were removed after various times of incubation and washed twice with one ml of PBS at room temperature. […] For cytofluorogaphic analysis, samples were analyzed for green fluorescence on a FACScan (Becton-Dickinson). The excitation wavelength was 488 nm and emission at 515 nm was analyzed. […]"}
{"smiles": "Cc1cc(C(C)(C)C)c(O)c(C(C)(C)C)c1", "note": "[butylated hydroxytoluene]", "values": [{"measurement": "effect on the response to bispecific LDL*-IC (uptake by monocytes)", "value": "had no effect"}]}
